Experimental data: patent publication US12054498B2, “Heteroaromatic macrocyclic ether chemotherapeutic agents” (Nuvalent, Inc., priority 2020, dated 2024)

Legend:
ROS1-wt = molecular target: T1, ROS1-wt (Homo sapiens, UniProt P08922); test: Biochemical kinase assay, ROS1-wt kinase domain; settings: apparent inhibitory constant, Morrison equation; ATP 2 mM in substrate solution; read-out: ROS1-wt Ki^app
T1 construct: purchased Carna 08-163
How it was run: (§1)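 Compounds, as 100-fold DMSO stocks, were dispensed first, then substrate mix was added (ATP 2 mM, AQT0101 26 μM, in 50 mM HEPES pH 7.5/10 mM MgCl2). Reactions ran at 30 °C with fluorescence logged every 2 min over 120 min. Apparent inhibition constants came from fitting rates to Morrison's tight-binding equation.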

[1] = molecular target: T2, Ba/F3 cells EML4-ALK L1196M/G1202R (variant 1) (Homo sapiens, UniProt Q9UM73, G1202R/L1196M); test: Ba/F3 cell proliferation assay, EML4-ALK L1196M/G1202R (variant 1); type: cell-based; settings: 72 hours, CellTiter-Glo
T2 construct: echinoderm microtubule-associated protein-like 4 (EML4) gene and the ALK tyrosine kinase domain; host or cells: Ba/F3 (RIKEN), retroviral pMSCV-puro; the other entry of the earlier key: EML4 (Q9HC35, Echinoderm microtubule-associated protein-like 4)
T2 sequence (Q9UM73 with tags, fused parts or gaps L1196M/G1202R): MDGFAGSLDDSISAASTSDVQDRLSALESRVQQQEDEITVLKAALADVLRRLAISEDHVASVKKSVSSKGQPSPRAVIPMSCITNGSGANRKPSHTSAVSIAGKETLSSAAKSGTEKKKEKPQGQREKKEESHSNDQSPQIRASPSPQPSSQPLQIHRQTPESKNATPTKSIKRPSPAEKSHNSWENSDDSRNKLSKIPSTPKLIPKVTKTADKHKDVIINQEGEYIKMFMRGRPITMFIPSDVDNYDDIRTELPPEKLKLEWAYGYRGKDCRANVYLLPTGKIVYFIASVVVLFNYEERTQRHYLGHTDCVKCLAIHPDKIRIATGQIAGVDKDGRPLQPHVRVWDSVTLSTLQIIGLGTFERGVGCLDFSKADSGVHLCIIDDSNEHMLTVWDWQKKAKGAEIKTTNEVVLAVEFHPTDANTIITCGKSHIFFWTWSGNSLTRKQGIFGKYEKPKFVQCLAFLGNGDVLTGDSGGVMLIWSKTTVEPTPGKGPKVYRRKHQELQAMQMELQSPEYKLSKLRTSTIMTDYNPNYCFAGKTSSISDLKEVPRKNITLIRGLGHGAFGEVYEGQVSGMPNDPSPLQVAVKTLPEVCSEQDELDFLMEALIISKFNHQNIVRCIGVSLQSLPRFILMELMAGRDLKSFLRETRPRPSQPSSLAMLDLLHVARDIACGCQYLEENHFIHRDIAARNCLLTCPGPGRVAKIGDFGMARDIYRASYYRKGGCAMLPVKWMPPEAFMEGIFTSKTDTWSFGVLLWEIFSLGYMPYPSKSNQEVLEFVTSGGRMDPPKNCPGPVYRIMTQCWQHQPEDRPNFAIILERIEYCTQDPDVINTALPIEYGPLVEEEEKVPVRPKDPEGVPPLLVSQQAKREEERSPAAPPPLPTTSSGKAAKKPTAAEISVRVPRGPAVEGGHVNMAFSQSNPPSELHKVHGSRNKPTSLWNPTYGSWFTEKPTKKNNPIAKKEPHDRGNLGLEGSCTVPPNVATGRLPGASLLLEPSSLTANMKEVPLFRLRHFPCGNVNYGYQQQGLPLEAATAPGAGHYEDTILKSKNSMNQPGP
How it was run: (§2)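 Ba/F3 lines stably expressing the fusion (retroviral pMSCV-puro, selected by IL-3 withdrawal plus puromycin 0.8 μg/mL, monoclonal) were seeded at 1,000 cells/well, dosed next day with 3-fold compound dilutions, and incubated 72 hours. CellTiter-Glo luminescence gave percent inhibition; IC50 by four-parameter logistic fit.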

ROS1-G2032R = molecular target: T3, ROS1-G2032R (Homo sapiens, UniProt P08922, G2032R); test: Biochemical kinase assay, ROS1-G2032R kinase domain; settings: apparent inhibitory constant, Morrison equation; ATP 2 mM in substrate solution; read-out: ROS1-G2032R Ki^app
T3 construct: purchased SignalChem R14-12BG
T3 sequence (P08922 1945-2222 G2032R limits assumed): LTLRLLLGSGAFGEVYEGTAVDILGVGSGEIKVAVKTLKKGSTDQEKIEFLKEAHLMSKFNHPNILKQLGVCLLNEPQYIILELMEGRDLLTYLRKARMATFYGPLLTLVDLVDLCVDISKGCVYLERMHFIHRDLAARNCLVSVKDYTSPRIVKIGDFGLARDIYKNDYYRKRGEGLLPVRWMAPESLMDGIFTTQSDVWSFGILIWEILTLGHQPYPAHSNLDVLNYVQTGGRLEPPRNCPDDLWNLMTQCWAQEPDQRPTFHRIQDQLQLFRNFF
How it was run: as §1

TRKA-wt = molecular target: T4, TRKA-wt (Homo sapiens, UniProt P04629); test: Biochemical kinase assay, TRKA-wt kinase domain; settings: apparent inhibitory constant, Morrison equation; ATP 2 mM in substrate solution; read-out: TRKA-wt Ki^app
T4 construct: or TRKA-wt (1 nM, BPS Bio, 40280) kinase domains in buffer; purchased BPS Bio 40280
T4 sequence (P04629 510-781 limits assumed): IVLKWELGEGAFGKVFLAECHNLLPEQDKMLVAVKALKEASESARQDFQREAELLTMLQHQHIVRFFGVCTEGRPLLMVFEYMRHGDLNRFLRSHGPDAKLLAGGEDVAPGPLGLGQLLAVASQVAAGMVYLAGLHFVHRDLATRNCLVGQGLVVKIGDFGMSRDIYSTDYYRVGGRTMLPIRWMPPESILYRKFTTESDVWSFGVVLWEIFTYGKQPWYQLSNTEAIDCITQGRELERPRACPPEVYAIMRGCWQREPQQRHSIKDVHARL
How it was run: (§3)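 Apparent Ki values come from fitting initial reaction rates against inhibitor concentration to the Morrison equation. Rates were taken from the linear phase of fluorogenic substrate phosphorylation (AQT0101 for ALK and ROS1, AQT0104 for TRKA; 26 μM in substrate solution with 2 mM ATP), monitored at 485 nm over 120 min at 30° C.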

ALK L1196M/G1202R = molecular target: T5, ALK L1196M/G1202R (Homo sapiens, UniProt Q9UM73, G1202R/L1196M); test: Biochemical kinase assay, ALK L1196M/G1202R kinase domain; settings: apparent inhibitory constant, Morrison equation; ATP 2 mM in substrate solution; read-out: ALK-L1196M-G1202R Ki^app
T5 construct: purchased SignalChem A19-12NG
T5 sequence (Q9UM73 1116-1392 L1196M/G1202R limits assumed): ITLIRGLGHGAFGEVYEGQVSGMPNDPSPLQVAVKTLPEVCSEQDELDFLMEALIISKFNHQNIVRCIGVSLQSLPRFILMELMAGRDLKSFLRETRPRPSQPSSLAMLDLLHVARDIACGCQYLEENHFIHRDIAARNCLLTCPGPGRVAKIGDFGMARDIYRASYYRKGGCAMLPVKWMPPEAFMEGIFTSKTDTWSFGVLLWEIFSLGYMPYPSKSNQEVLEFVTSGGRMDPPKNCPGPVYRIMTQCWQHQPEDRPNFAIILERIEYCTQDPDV
How it was run: as §3

[2] = molecular target: T6, Ba/F3 cells CD74-ROS1 G2032R (Homo sapiens, UniProt P08922, G2032R); test: Ba/F3 cell proliferation assay, CD74-ROS1 G2032R; type: cell-based; settings: 72 hours, CellTiter-Glo
T6 construct: fusion of the C-terminus of ROS1 with the N-terminus of various partner proteins; host or cells: Ba/F3 (RIKEN), retroviral pMSCV-puro; the other entry of the earlier key: CD74 (P04233, HLA class II histocompatibility antigen gamma chain)
T6 sequence (P08922 1883-2347 G2032R limits assumed): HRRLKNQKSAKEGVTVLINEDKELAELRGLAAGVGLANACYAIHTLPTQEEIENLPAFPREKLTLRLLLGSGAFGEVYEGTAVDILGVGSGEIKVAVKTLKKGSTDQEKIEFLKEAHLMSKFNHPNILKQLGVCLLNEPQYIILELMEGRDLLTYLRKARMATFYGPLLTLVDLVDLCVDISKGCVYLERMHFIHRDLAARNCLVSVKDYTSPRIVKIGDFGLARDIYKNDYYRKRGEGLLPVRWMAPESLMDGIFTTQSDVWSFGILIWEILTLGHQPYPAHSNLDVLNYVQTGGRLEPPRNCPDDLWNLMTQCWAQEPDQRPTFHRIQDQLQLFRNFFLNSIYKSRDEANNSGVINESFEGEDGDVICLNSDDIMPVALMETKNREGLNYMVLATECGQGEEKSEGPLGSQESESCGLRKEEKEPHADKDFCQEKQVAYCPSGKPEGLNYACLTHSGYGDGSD
How it was run: (§4)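 Viability read by CellTiter-Glo luminescence after 72 h exposure to 3-fold serial compound dilutions, four-parameter logistic fitting giving IC50.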

Ba/F3 cells TPM3-TRKA = molecular target: T7, Ba/F3 cells TPM3-TRKA (Homo sapiens, UniProt P04629); test: Ba/F3 cell proliferation assay, TPM3-TRKA; type: cell-based; settings: 72 hours, CellTiter-Glo, read-out: TPM3-NTRK1-wt IC50
T7 construct: host or cells: Ba/F3 (RIKEN), retroviral pMSCV-puro; the other entry of the earlier key: TPM3 (P06753, Tropomyosin alpha-3 chain)
T7 sequence (P04629 510-796 limits assumed): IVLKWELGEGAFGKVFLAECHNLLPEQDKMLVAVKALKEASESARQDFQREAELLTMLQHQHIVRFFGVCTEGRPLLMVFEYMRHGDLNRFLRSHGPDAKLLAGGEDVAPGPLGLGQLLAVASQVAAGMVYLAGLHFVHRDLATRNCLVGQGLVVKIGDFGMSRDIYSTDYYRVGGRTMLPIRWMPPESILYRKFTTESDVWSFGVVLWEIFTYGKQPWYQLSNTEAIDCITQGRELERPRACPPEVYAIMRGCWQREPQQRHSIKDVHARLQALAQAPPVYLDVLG
How it was run: as §2

[3] = molecular target: T8, Ba/F3 cells EML4-ALK wt (variant 1) (Homo sapiens, UniProt Q9UM73); test: Ba/F3 cell proliferation assay, EML4-ALK wt (variant 1); type: cell-based; settings: 72 hours, CellTiter-Glo
T8 construct: echinoderm microtubule-associated protein-like 4 (EML4) gene and the ALK tyrosine kinase domain; host or cells: Ba/F3 (RIKEN), retroviral pMSCV-puro; the other entry of the earlier key: EML4 (Q9HC35, Echinoderm microtubule-associated protein-like 4)
T8 sequence (Q9UM73 with tags, fused parts or gaps): as the sequence (Q9UM73 with tags, fused parts or gaps L1196M/G1202R) above, with M635L, R641G counted along it
How it was run: as §2

ALK-wt = molecular target: T9, ALK-wt (Homo sapiens, UniProt Q9UM73); test: Biochemical kinase assay, ALK-wt kinase domain; settings: apparent inhibitory constant, Morrison equation; ATP 2 mM in substrate solution; read-out: ALK-wt Ki^app
T9 construct: purchased Carna 08-518
T9 sequence (Q9UM73 1116-1392 limits assumed): as the sequence (Q9UM73 1116-1392 L1196M/G1202R limits assumed) above, with M81L, R87G counted along it
How it was run: as §3

[4] = molecular target: T10, Ba/F3 cells CD74-ROS1 wild-type (wt) (Homo sapiens, UniProt P08922); test: Ba/F3 cell proliferation assay, CD74-ROS1 wild-type; type: cell-based; settings: 72 hours, CellTiter-Glo
T10 construct: fusion of the C-terminus of ROS1 with the N-terminus of various partner proteins; host or cells: Ba/F3 (RIKEN), retroviral pMSCV-puro; the other entry of the earlier key: CD74 (P04233, HLA class II histocompatibility antigen gamma chain)
T10 sequence (P08922 1883-2347 limits assumed): as the sequence (P08922 1883-2347 G2032R limits assumed) above, with R150G counted along it
How it was run: as §4

[5] = test system: TPM3-NTRK1-wt IC50 / primary target IC50 (e.g. CD74-ROS1-wt); test: TRKA selectivity in Ba/F3 cells (TRKA potency divided by primary target potency); type: cell-based; settings: for TPM3-NTRK1-wt/CD74-ROS1-G2032R selectivity ratio: TRKA potency / CD74-ROS1-G2032R potency; for TPM3-NTRK1-wt/CD74-ROS1-wt selectivity ratio: TRKA potency / CD74-ROS1-wt potency; for TPM3-NTRK1-wt/EML4-ALK-L1196M-G1202R selectivity ratio: TRKA potency / EML4-ALK-L1196M-G1202R potency; for TPM3-NTRK1-wt/EML4-ALK-wt selectivity ratio: TRKA potency / EML4-ALK-wt potency
Protocol: TRKA selectivity was calculated by dividing a compound's TRKA potency by its primary target potency (e.g. TPM3-NTRK1-wt IC50/CD74-ROS1-wt IC50). Compound selectivity can be interpreted by binning ratio values: bin A for very high selectivity, ratio >30-fold; bin B for high selectivity, ratio >10-fold; bin C for moderate selectivity, ratio ≥1; and bin D for low selectivity, ratio <1. […] (nd=not determined).

T1 sequence (P08922 1945-2222 limits assumed): as the sequence (P08922 1945-2222 G2032R limits assumed) above, with R88G counted along it

SMILES	Ki (ROS1-wt)	IC50 [1]	Ki (ROS1-G2032R)	Ki (TRKA-wt)	Ki (ALK L1196M/G1202R)	IC50 [2]	IC50 (Ba/F3 cells TPM3-TRKA)	IC50 [3]	Ki (ALK-wt)	IC50 [4]	TPM3-NTRK1-wt/CD74-ROS1-G2032R selectivity ratio [5]	TPM3-NTRK1-wt/CD74-ROS1-wt selectivity ratio [5]	TPM3-NTRK1-wt/EML4-ALK-L1196M-G1202R selectivity ratio [5]	TPM3-NTRK1-wt/EML4-ALK-wt selectivity ratio [5]
C[C@H]1Oc2cc(cnc2N)-c2c(cnn2C2CC2)Cc2nn(C)nc2-c2ccc(F)cc21 [Example 14, (19R)-3-cyclopropyl-16-fluoro-10,19-dimethyl-20-oxa-3,4,9,10,11,23-hexaazapentacyclo[19.3.1.0^2,^6.0^8,^12.0^13,^18]pentacosa-1(24),2(6),4,8,11,13,15,17,21(25),22-decaen-22-amine]	< 50 nM	50 to 500 nM	< 50 nM	50 to 500 nM	< 50 nM	0.1 to 50 nM	50 to 500 nM	0.1 to 50 nM	< 50 nM	0.1 to 50 nM	A (bin A for very high selectivity, ratio >30-fold)	A (bin A for very high selectivity, ratio >30-fold)	C (bin C for moderate selectivity, ratio ≥1)	A (bin A for very high selectivity, ratio >30-fold)
CCn1nc(Cl)c2c1-c1cnc(N)c(c1)O[C@H](C)c1cc(F)ccc1-c1nn(C)nc1C2 [Example 28, (19R)-5-chloro-3ethyl-16-fluoro-10,19-dimethyl-20-oxa-3,4,9,10,11,23-hexaazapentacyclo[19.3.1.0^2,^6.0^8,^12.0^13,^18]pentacosa-1(24),2(6),4,8,11,13,15,17,21(25),22-decaen-22-amine]	< 50 nM	50 to 500 nM	< 50 nM	> 500 nM	< 50 nM	0.1 to 50 nM	50 to 500 nM	0.1 to 50 nM	< 50 nM	0.1 to 50 nM	A (bin A for very high selectivity, ratio >30-fold)	A (bin A for very high selectivity, ratio >30-fold)	C (bin C for moderate selectivity, ratio ≥1)	B (bin B for high selectivity, ratio >10-fold)
CCn1nc2c(n1)-c1ccc(F)cc1[C@@H](C)Oc1cc(cnc1N)-c1c(cnn1CC)C2 [Example 88, (19R)-3,10-diethyl-16-fluoro-19-methyl-20-oxa-3,4,9,10,11,23-hexaazapentacyclo(19.3.1.0^2,^6.0^8,^12.0^13,^18]pentacosa-1(24),2(6),4,8,11,13,15,17,21(25),22-decaen-22-amine]	< 50 nM	50 to 500 nM	< 50 nM	50 to 500 nM	< 50 nM	0.1 to 50 nM	50 to 500 nM	0.1 to 50 nM	< 50 nM	0.1 to 50 nM	A (bin A for very high selectivity, ratio >30-fold)	A (bin A for very high selectivity, ratio >30-fold)	C (bin C for moderate selectivity, ratio ≥1)	B (bin B for high selectivity, ratio >10-fold)
C[C@H]1Oc2cc(cnc2N)-c2c(cnn2CC2CC2)Cc2ncc(F)cc2-c2ccc(F)cc21 [Example 72, (20R)-3-(cyclopropylmethyl)-11,17-difluoro-20-methyl-21-oxa-3,4,9,24-tetraazapentacyclo[20.3.1.0^2,^6.0^8,^13.0^14,^19]hexacosa-1(25),2(6),4,8(13),9,11,14,16,18,22(26),23-undecaen-23-amine]	< 50 nM	0.1 to 50 nM	< 50 nM	50 to 500 nM	< 50 nM	0.1 to 50 nM	50 to 500 nM	0.1 to 50 nM	< 50 nM	0.1 to 50 nM	A (bin A for very high selectivity, ratio >30-fold)	A (bin A for very high selectivity, ratio >30-fold)	A (bin A for very high selectivity, ratio >30-fold)	A (bin A for very high selectivity, ratio >30-fold)
C[C@H]1Oc2cc(cnc2N)-c2c(C#N)ncn2Cc2ncccc2-c2ccc(F)cc21 [Example 19, (20R)-23-amino-17-fluoro-20-methyl-21-oxa-4,6,9,24-tetraazapentacyclo[20.3.1.0^3,^6.0^8,^13.0^14,^19]hexacosa-1(25),2,4,8(13),9,11,14,16,18,22(26),23-undecaene-3-carbonitrile]	< 50 nM	0.1 to 50 nM	< 50 nM	> 500 nM	< 50 nM	0.1 to 50 nM	> 500 nM	0.1 to 50 nM	< 50 nM	0.1 to 50 nM	A (bin A for very high selectivity, ratio >30-fold)	A (bin A for very high selectivity, ratio >30-fold)	A (bin A for very high selectivity, ratio >30-fold)	A (bin A for very high selectivity, ratio >30-fold)
CCn1ncc2c1-c1cnc(N)c(c1)O[C@H](C)c1cc(F)ccc1-c1ccnn1C2 [Example 1, (19R)-3-ethyl-16-fluoro-19-methyl-20-oxa-3,4,8,9,23-pentaazapentacyclo[19.3.1.0^2,^6.0^8,^12.0^13,^18]pentacosa-1(24),2(6),4,9,11,13,15,17,21(25),22-decaen-22-amine]	< 50 nM	50 to 500 nM	< 50 nM	50 to 500 nM	< 50 nM	0.1 to 50 nM	> 500 nM	0.1 to 50 nM	< 50 nM	0.1 to 50 nM	A (bin A for very high selectivity, ratio >30-fold)	A (bin A for very high selectivity, ratio >30-fold)	B (bin B for high selectivity, ratio >10-fold)	A (bin A for very high selectivity, ratio >30-fold)
Cc1nn(CC2CC2)c2c1Cc1nn(C)nc1-c1ccc(F)cc1[C@@H](C)Oc1cc-2cnc1N [Example 65]	< 50 nM	0.1 to 50 nM	< 50 nM	> 500 nM	< 50 nM	0.1 to 50 nM	> 500 nM	0.1 to 50 nM	< 50 nM	0.1 to 50 nM	A (bin A for very high selectivity, ratio >30-fold)	A (bin A for very high selectivity, ratio >30-fold)	A (bin A for very high selectivity, ratio >30-fold)	A (bin A for very high selectivity, ratio >30-fold)
